From publication PMC11013424, “Evaluation of the Lipophilicity of Angularly Condensed Diquino- and Quinonaphthothiazines as Potential Candidates for New Drugs” (Molecules, 2024)

What was measured:
[1] = design: method as in doi:10.1016/j.molstruc.2023.135700, PMID 30981160, doi:10.1016/j.molstruc.2015.06.046, PMID 25750501, doi:10.1016/j.molstruc.2023.136856; settings: cited from earlier work
[2] = system: IFNβ expression and IFNβ-dependent downstream genes and proteins; design: method as in doi:10.1016/j.molstruc.2023.135700, PMID 30981160, doi:10.1016/j.molstruc.2015.06.046, PMID 25750501, doi:10.1016/j.molstruc.2023.136856; settings: cited from earlier work
[3] = design: method as in doi:10.1016/j.molstruc.2023.136856; settings: cited from earlier work
[4] = design: method as in doi:10.1016/j.molstruc.2023.136856; settings: cited from earlier work; remark: listed apart in the source
[5] = design: method as in doi:10.1016/j.molstruc.2023.136856; settings: cited from earlier work; remark: listed apart in the source
alpha-glucosidase = system: alpha-glucosidase; design: method as in doi:10.1016/j.molstruc.2023.136856; settings: cited from earlier work
alpha-amylase = system: alpha-amylase; design: method as in doi:10.1016/j.molstruc.2023.136856; settings: cited from earlier work
[6] = RP-TLC determination of lipophilicity (RM0, logPTLC); settings: for RM0: RP-18 plate, acetone/TRIS buffer pH 7.4, extrapolated to zero acetone; for b (slope) / -b: slope of RM = RM0 + b·C; for b (slope): acetone/TRIS buffer pH 7.4; for LogPTLC: from RM0 by calibration logPTLC = 1.2838 RM0 + 0.2138; for -b: standards I–V;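 on all read-outs here: silica gel 60 RP-18 F254S plates, TRIS buffer of ionic strength 0.2 M, detection under UV at 254 nm, RF averaged over three or more runs, C in % v/v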
Protocol: RP-TLC was carried out on a silica gel 60 RP-18 F254S 10 cm × 10 cm RP-TLC plate (Merck, Darmstad, Germany). The mobile phase was acetone and an aqueous TRIS (tris(hydroxymethyl)-aminomethane) buffer pH = 7.4 (ionic strength 0.2 M) to meet physiological conditions. […] Angularly condensed diquino- and quinonaphthothiazinethiazines (1–21) and the standards I–V were dissolved in ethanol (2.0 mg/mL). […] Before developing the plates, the chromatographic chambers were saturated with the mobile phase for 0.5 h. After developing the plates and drying in a stream of air, the chromatograms were observed under UV light at λ = 254 nm. At least, three chromatograms were developed for each soluble–solvent combination, and the RF values were averaged. […] The RM0 values were obtained by extrapolation to a zero acetone concentration using the equation RM = RM0 + bC, where C is the concentration (%, v/v) of acetone in the mobile phase.

Row | Compound | RM0 [6] | b (slope) [6] | other results
1 | 6-chloro-ethylureidoethyldiquinothiazine | – | – | activity in in vivo models [1]: suppressive and anti-inflammatory activities; inhibition of IFNβ expression and IFNβ-dependent downstream genes and proteins [2]: inhibitory activity
2 | c1ccc2nc3c(cc2c1)Sc1c(cnc2ccccc12)N3 [Compound 1, 7H-diquino[3,2-b;3′,4′-e]thiazine] | 3.15 | −0.0383 | free radical scavenging effect [3]: strong; lipid peroxidation effect [4]: strong; ion chelating effect [5]: strong; alpha-glucosidase activity inhibition (alpha-glucosidase): inhibited; alpha-amylase activity inhibition (alpha-amylase): inhibited
3 | CN1c2cnc3ccccc3c2Sc2cc3ccccc3nc21 [Compound 2] | 4.14 | −0.0503 | –
4 | C=CCN1c2cnc3ccccc3c2Sc2cc3ccccc3nc21 [Compound 3] | 4.30 | −0.058 | –
5 | C#CCN1c2cnc3ccccc3c2Sc2cc3ccccc3nc21 [Compound 4] | 3.35 | −0.0383 | –
6 | c1ccc2nc3c(cc2c1)Sc1c(ccc2ncccc12)N3 [Compound 5] | 3.72 | −0.0459 | –
7 | CN1c2ccc3ncccc3c2Sc2cc3ccccc3nc21 [Compound 6] | 4.24 | −0.0582 | –
8 | C=CCN1c2ccc3ncccc3c2Sc2cc3ccccc3nc21 [Compound 7] | 4.46 | −0.0534 | –
9 | c1ccc2nc3c(cc2c1)Sc1ccc2ncccc2c1N3 [Compound 9] | 3.69 | −0.0498 | free radical scavenging effect [3]: strong; lipid peroxidation effect [4]: strong; ion chelating effect [5]: strong; alpha-glucosidase activity inhibition (alpha-glucosidase): inhibited; alpha-amylase activity inhibition (alpha-amylase): inhibited
10 | c1ccc2nc3c(cc2c1)Sc1ccc2cccnc2c1N3 [Compound 11] | 3.48 | −0.0462 | free radical scavenging effect [3]: strong; lipid peroxidation effect [4]: strong; ion chelating effect [5]: strong; alpha-glucosidase activity inhibition (alpha-glucosidase): inhibited; alpha-amylase activity inhibition (alpha-amylase): inhibited; LogPTLC [6]: 4.72
11 | O=C(O)c1ccccc1 [Standard II, benzoic acid, reference compound] | 1.16 | – | -b [6]: 0.0247
12 | Clc1ccc(C(c2ccc(Cl)cc2)C(Cl)(Cl)Cl)cc1 [Standard V, p,p’-DDT, reference compound] | 4.69 | – | LogPTLC [6]: 6.24; -b [6]: 0.0564

Continued, in another order:

Row | RM0 [6] | b (slope) [6] | Compound | other results
13 | 3.96 | −0.0539 | C#CCN1c2ccc3ncccc3c2Sc2cc3ccccc3nc21 [Compound 8] | LogPTLC [6]: 5.34
14 | 4.37 | −0.0540 | CN1c2nc3ccccc3cc2Sc2ccc3ncccc3c21 [Compound 10] | –
15 | 4.21 | −0.0576 | CN1c2nc3ccccc3cc2Sc2ccc3cccnc3c21 [Compound 12] | –
16 | – | −0.0478 | C=CCN1c2nc3ccccc3cc2Sc2ccc3cccnc3c21 [Compound 13] | –
17 | 4.24 | −0.0573 | c1ccc2nc3c(cc2c1)Sc1c(ccc2ccccc12)N3 [Compound 14] | LogPTLC [6]: 5.69
18 | 4.49 | −0.0527 | CN1c2ccc3ccccc3c2Sc2cc3ccccc3nc21 [Compound 15] | –
19 | 4.29 | −0.0529 | C#CCN1c2ccc3ccccc3c2Sc2cc3ccccc3nc21 [Compound 17] | LogPTLC [6]: 5.76
20 | 3.81 | −0.0484 | c1ccc2nc3c(cc2c1)Sc1ccc2ccccc2c1N3 [Compound 18] | –
21 | 4.18 | −0.0538 | CN1c2nc3ccccc3cc2Sc2ccc3ccccc3c21 [Compound 19] | LogPTLC [6]: 5.58
22 | 4.34 | −0.0548 | C=CCN1c2nc3ccccc3cc2Sc2ccc3ccccc3c21 [Compound 20, 14-allylquinonaphthothiazine] | –
23 | 4.09 | −0.0507 | C#CCN1c2nc3ccccc3cc2Sc2ccc3ccccc3c21 [Compound 21] | –
24 | 0.78 | – | CC(=O)Nc1ccccc1 [Standard I, acetanilide, reference compound] | LogPTLC [6]: 1.21; -b [6]: 0.0162
